{"source": "patent US20230242964A1", "about": "“BIODEGRADABLE BIOCHEMICAL SENSOR FOR DETERMINING THE PRESENCE AND/OR THE LEVEL OF PESTICIDES OR ENDOCRINE DISRUPTORS: METHOD AND COMPOSITION” (priority 2018, published 2023)", "key": {"[1]": {"target": "E. coli EPSP Synthase (Escherichia coli, UniProt P0A6D3)", "sequence (P0A6D3 whole entry)": "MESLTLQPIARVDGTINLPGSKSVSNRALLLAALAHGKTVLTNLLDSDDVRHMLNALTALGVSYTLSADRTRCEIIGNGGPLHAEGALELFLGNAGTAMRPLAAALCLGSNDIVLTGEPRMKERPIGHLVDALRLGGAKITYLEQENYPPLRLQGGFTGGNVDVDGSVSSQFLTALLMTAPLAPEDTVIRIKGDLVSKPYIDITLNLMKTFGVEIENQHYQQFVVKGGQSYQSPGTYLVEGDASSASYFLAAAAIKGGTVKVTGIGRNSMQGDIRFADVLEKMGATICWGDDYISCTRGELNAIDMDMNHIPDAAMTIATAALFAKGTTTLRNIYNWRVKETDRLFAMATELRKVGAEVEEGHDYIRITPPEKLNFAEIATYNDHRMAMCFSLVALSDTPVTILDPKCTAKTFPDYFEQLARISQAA", "test": "EPSP synthase network #2B plugged to phosphate detection", "from_the_text": "The entry of the network is composed of: the EPSP synthase that uses the phospho-enol pyruvate (PEP) and the 3-phospho Shikimate to produce 5-O-(1-caroxyvinyl)-3-phosphoshikimate and inorganic phosphate.\nThen 2 different networks have been tested: • One that converts the inorganic phosphate (Pi): Pi is combined with Inosine in the presence of the purine nucleoside phosphorylase to give Hypoxanthine. The Hypoxantine lead to Xanthine and H2O2 in the presence of Xanthine Oxidase. The Horseradish peroxidase uses the H2O2 to convert the O-dianisidine or the Amplex Red and give a colorimetric or fluorimetric signal detectable.\nFirst, the network has been tested in liquid buffer without vesicle or gel. […] Reaction was followed for 1 hour at 25° C. by registering the absorbance at 450 nm on a spectrophotometer. • One that converts the 5-O-(1-caroxyvinyl)-3-phosphoshikimate produced by the EPSP synthase: 5-O-(1-caroxyvinyl)-3-phosphoshikimate is metabolized by the Chorismate Synthase to give chorismate. This Chorismate is then transformed in pyruvate by the chorismate Lyase. Finaly the pyruvate is used by the Lactate dehydrogenase in the presence of NADH to give lactate and NAD+. The NADH consumption is followed by the change of fluorescence emission at 445 nm (Excitation at 340 nm)—or change of absorbance at 340 nm on a spectrophotometer. • 3.\nThe reaction was followed by the change of fluorescence on a fluorimeter (Excitation at 530 nm/Emission at 590 nm) or by the change of absorbance at 450 nm on a spectrophotometer. It allowed us to determine the activity of the EPSP synthase toward Phosphoenol Pyruvate (PEP)."}, "[2]": {"system": "BliGO SCF4 mutant", "settings": "cited from earlier work"}, "[3]": {"target": "T1, Bacillus subtilis H244K Glycine/Glyphosate oxidase (Bacillus subtilis, UniProt O31616, H244K)", "T1 construct": "purchased Creative enzyme NATE-1674", "T1 sequence (O31616 whole entry H244K)": "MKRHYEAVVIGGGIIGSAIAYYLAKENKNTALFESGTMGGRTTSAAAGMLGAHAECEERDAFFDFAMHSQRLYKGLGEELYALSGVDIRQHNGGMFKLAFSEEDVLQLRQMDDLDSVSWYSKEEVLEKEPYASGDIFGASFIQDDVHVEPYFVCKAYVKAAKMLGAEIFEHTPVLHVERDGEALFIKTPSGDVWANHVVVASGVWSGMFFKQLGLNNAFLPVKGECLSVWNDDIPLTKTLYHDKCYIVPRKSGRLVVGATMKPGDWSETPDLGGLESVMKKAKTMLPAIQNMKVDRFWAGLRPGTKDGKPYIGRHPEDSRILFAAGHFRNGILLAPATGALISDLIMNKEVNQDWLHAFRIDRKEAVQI", "test": "Glycine biochemical network #3, Amplex red/HRP fluorescence and colorimetric readout", "settings": "glyphosate at 100 μM, Tris buffer 50 mM pH 7,5", "source_text": "It allowed us to detect the glycine."}}}
{"smiles": "C=C(OP(=O)(O)O)C(=O)O", "note": "[PEP, phosphoenolpyruvate]", "values": [{"measurement": "EPSP affinity for PEP", "setting": "[1]; 50 mM Hepes pH 7, 25° C.", "result": 14, "unit": "µM"}, {"measurement": "Vmax of EPSP synthase toward PEP", "setting": "[1]; 50 mM Hepes pH 7, 25° C.", "result": "1.026e-08", "unit": "mol/L/s"}]}
{"smiles": "NCC(=O)O", "note": "[glycine]", "values": [{"measurement": "decrease of activity to glycine compared to WT", "setting": "[2]; BliGO SCF4 mutant vs WT", "result": 113, "unit": "fold"}]}
{"smiles": "O=C(O)CNCP(=O)(O)O", "note": "[glyphosate]", "values": [{"measurement": "effect on the EPSP synthase", "setting": "[1]; glyphosate 0 to 2 mM, concentration dependent", "result": "inhibitory effect"}, {"measurement": "detection by network #3", "setting": "[3]", "result": "absence of detection"}, {"measurement": "increase of affinity toward glyphosate compared to WT", "setting": "[2]; BliGO SCF4 mutant vs WT", "result": 8, "unit": "fold"}, {"measurement": "affinity toward glyphosate", "setting": "[2]; BliGO SCF4 mutant", "result": 1.58, "unit": "mM"}]}
